Measurements taken from patent EP0400799A1, “Phenylpyrimidone derivatives” (SMITH KLINE & FRENCH LABORATORIES LIMITED, priority 1989, dated 1990).

What was measured:
[1] = test system: histamine bronchoconstriction; test: Bronchodilatation in vivo, histamine-induced bronchoconstriction (airway resistance, Konzett-Rossler); set-up: species or system guinea-pigs of the Dunkin Hartley strain; conditions: Cavia porcellus, iv; dose reducing histamine bronchoconstriction by 50%; anaesthetised male guinea-pigs; i.v. bolus one minute before histamine challenge; read-out: BD₅₀
Method: A. Male guinea-pigs of the Dunkin Hartley strain (500 - 600 g) were anaesthetised with Sagatal (pentobarbital sodium) (60 mg/kg i.p.). Airway resistance was measured using a modification of the classical Konzett-Rossler technique (J. Pharm. Methods, 13, 309-315, 1985). A dose of histamine which gave approximately 150% increase in airway resistance was selected for i.v. administration. Bolus doses of the compound under test were administered (i.v.) one minute before the histamine challenge and the subsequent peak inhibition of bronchoconstriction recorded.
The dose of compound required to reduce the histamine bronchoconstriction by 50% is given as the BD₅₀.

hindquarter blood flow = test: Vasodilatation in vivo, perfused hindquarter blood flow; conditions: Rattus norvegicus, iv; dose producing a 50% increase in hindquarter blood flow; anaesthetised male Wistar rats; bolus i.v.; read-out: EDHQ₅₀
Method: Male Wistar rats (300 g) were anaesthetised with a sodium 5-ethyl-5-(1-methylpropyl)-2-thiobarbiturate/sodium pentobarbitone mixture i.p. (62.5 and 22.5 mg/kg respectively). The trachea was cannulated and the rats breathed spontaneously air enriched with O₂ (5 ml/min). Blood pressure was recorded from a carotid artery and a jugular vein was cannulated for the administration of compounds. The temperature of the animal was maintained at 37°C by the use of an electric blanket. […] The perfusion circuit was primed with 5% bovine serum albumin dissolved in 0.9% sodium chloride solution, pH adjusted to 7.4. Initially the pump rate was set between 10 and 15 ml/min to match the hind quarter perfusion pressure to that of the systemic circulation. Once set, the pressure remained unaltered for the rest of the experiment. A change in the speed of the pump (equivalent to hindquarter blood flow) was used to assess the changes in hindquarter vascular resistance.
All compounds were administered as a bolus i.v. and from the dose response curves the dose required to produce a 50% increase in hindquarter blood flow (EDHQ₅₀) was determined in µmoles/kg.

[2] = test system: U46619-induced bronchoconstriction; test: Bronchodilatation in vivo, U46619-induced bronchoconstriction (airway resistance, Konzett-Rossler); set-up: species or system guinea-pigs of the Dunkin Hartley strain; conditions: Cavia porcellus, iv; dose reducing U46619-induced bronchoconstriction by 50%; anaesthetised male guinea-pigs; i.v. bolus; U46619 infused i.v. 2.5 nmol/min; read-out: BD₅₀
Method: B. Male guinea-pigs of the Dunkin Hartley strain (500 - 600g) were anaesthetised with Sagatal (pentobarbital sodium) (60 mg/kg). Airway resistance was measured using a modification of the classical Konzett-Rossler technique (J. Pharm. Methods, 13, 309-315, 1985). U46619 (9,11-methanoepoxy-PGH₂) was infused i.v. at a rate of 2.5 nmol/min, this produced a steady state of bronchoconstriction (approximately 120% increase from basal airway resistance). The compound under test was administered by i.v. bolus injection, and the subsequent peak inhibition of bronchoconstriction recorded.
The dose of compound required to reduce the U46619-induced bronchoconstriction by 50% is given as the BD₅₀.

| SMILES | ED50 [1] [µmol/kg] | ED50 (hindquarter blood flow) [µmol/kg] | ED50 [2] [µmol/kg] |
| --- | --- | --- | --- |
| CCCOc1ccccc1-c1ncc(N)c(=O)[nH]1 [Ex 3, 5-Amino-2-(2-propoxyphenyl)pyrimidin-4(3H)-one] | 8.34 | 19 |  |
| CCCOc1ccccc1-c1ncc(NC(C)=O)c(=O)[nH]1 [Ex 4, 5-Acetamido-2-(2-propoxyphenyl)pyrimidin-4(3H)-one] | 8.4 | 15.8 | 3.8 |
| CCCOc1ccccc1-c1ncc(C(N)=O)c(=O)[nH]1 [y, 1,6-dihydro-6-oxo-2-(2-propoxyphenyl)pyrimidine-5-carboxamide, reference compound] | 5.6 | 23 |  |
| CCCOc1ccccc1-c1nccc(=O)[nH]1 [Ex 5, 2-(2-Propoxyphenyl)pyrimidin-4(3H)-one] |  | 22 | 3.2 |
